# Data reported in ChEMBL document CHEMBL1201862, “PubChem BioAssay data set” (2004).
# Activity calls are given as the source filed them.
# Experiments:
# [1] = molecular target: DNA dC->dU-editing enzyme APOBEC-3G (Homo sapiens, UniProt Q9HC16); assay type: functional;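 also: Dose-response counterscreen measuring inhibition of APOBEC3G DNA deaminase activity, run while confirming APOBEC3A inhibitors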
# [2] = molecular target: DNA dC->dU-editing enzyme APOBEC-3A (Homo sapiens, UniProt P31941); assay: Dose Response confirmation of small molecule APOBEC3A DNA Deaminase Inhibitors via a fluorescence-based single-stranded DNA deaminase assay. [Related pubchem assays (depositor defined):AID493011, AID493024]; assay type: functional
# DNA dC->dU-editing enzyme APOBEC-3A, sequence (P31941 whole entry): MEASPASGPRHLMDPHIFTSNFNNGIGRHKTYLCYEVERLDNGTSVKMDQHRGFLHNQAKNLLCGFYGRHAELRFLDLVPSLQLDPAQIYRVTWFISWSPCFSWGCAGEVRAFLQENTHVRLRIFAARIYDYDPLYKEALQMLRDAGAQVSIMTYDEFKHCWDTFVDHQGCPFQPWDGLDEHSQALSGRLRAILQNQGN
# Aminopeptidase N = molecular target: T1, Aminopeptidase N (Plasmodium falciparum FcB1/Columbia, UniProt O96935); assay: malaria alanyl aminopeptidase activity blockers – biochemical, fluorogenic H-Leu-NHMec substrate, 1536-well (AID 1445); set-up: species or system Plasmodium falciparum 3D7, 3D7
# T1 sequence (O96935 whole entry): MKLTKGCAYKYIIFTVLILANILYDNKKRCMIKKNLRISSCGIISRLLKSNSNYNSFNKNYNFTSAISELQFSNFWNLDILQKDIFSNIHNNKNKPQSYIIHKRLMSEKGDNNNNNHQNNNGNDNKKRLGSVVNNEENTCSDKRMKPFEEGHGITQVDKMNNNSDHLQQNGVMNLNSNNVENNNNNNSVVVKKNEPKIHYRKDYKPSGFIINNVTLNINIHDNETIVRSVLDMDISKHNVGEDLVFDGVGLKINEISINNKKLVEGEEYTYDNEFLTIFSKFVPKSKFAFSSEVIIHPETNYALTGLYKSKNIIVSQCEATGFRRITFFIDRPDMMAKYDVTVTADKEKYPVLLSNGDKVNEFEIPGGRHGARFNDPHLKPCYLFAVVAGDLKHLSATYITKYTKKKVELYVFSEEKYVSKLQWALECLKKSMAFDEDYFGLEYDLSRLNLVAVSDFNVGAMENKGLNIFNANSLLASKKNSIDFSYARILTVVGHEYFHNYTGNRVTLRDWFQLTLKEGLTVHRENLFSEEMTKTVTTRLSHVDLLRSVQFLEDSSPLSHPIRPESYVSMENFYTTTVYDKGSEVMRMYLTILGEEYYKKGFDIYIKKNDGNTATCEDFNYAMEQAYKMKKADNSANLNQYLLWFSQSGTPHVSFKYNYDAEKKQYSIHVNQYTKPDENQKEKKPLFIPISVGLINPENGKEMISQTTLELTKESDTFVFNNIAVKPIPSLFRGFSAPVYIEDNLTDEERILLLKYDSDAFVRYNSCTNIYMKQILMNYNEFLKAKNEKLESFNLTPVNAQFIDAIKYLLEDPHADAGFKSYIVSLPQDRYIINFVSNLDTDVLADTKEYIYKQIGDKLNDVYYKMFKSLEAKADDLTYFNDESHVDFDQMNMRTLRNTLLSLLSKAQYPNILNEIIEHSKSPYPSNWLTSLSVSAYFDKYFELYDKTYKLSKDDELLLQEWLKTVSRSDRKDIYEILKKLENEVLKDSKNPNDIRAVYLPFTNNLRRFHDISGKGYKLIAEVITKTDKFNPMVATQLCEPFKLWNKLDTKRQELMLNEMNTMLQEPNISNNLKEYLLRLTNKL
# [3] = molecular target: T2, Heat shock factor protein 1 (Mus musculus, UniProt P38532); assay: enhancement of HSF1-driven luciferase signal – cell-based, NIH3T3, luminescence, dose retest, confirmation (AID 435004); assay type: functional;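 also: stress induced by proteasome inhibitor MG132 added 30 min after compound; luciferase reporter driven by HSF1 response element in NIH3T3 cells; actives raise luminescence as potentiators of the MG132 stress response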
# T2 sequence (P38532 whole entry): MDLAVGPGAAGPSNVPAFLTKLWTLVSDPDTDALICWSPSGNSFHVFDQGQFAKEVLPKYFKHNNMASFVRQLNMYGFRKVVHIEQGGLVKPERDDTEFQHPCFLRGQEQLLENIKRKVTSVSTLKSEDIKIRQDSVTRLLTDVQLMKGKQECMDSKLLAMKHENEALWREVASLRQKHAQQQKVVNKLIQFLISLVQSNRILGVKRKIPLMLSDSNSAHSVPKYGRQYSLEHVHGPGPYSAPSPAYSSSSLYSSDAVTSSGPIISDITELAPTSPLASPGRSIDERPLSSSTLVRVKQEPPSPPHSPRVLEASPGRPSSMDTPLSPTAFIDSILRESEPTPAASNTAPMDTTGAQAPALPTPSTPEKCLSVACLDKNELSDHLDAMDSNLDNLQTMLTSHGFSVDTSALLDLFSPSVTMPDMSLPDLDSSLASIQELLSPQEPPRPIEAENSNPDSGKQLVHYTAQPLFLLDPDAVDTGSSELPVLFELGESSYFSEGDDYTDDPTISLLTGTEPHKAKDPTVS
# [4] = molecular target: T3, Microphthalmia-associated transcription factor (Homo sapiens, UniProt O75030); assay: reducers of TRPM1 reporter luminescence, concentration series – cell-based, SK-MEL-5, cherry-picked, set 3, MITF inhibitor project, dose response (AID 493073); assay type: functional;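 also: SK-MEL-5 melanoma cells with luciferase driven by the MITF target TRPM1 promoter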
# T3 sequence (O75030 whole entry): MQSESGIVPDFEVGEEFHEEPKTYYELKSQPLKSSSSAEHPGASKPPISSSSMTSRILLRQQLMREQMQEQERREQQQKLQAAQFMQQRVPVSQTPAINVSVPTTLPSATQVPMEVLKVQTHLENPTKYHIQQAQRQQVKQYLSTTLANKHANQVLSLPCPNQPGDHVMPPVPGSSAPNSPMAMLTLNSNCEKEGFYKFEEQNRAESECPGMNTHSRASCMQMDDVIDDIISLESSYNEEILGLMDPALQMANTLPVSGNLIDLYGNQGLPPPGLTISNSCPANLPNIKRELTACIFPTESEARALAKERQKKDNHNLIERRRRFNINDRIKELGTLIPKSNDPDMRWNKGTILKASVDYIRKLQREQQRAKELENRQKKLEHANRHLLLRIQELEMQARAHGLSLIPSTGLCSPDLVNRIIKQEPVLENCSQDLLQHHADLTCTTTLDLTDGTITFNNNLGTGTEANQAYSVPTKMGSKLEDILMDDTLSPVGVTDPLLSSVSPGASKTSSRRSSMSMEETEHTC
# [5] = molecular target: Heat shock protein HSP 90-alpha (Homo sapiens, UniProt P07900); assay type: functional, organism-based
# [6] = molecular target: Voltage-dependent T-type calcium channel subunit alpha-1H (Homo sapiens, UniProt O95180); assay type: functional;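 also: channel activity triggered by adding a high calcium stimulation buffer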
# Voltage-dependent T-type calcium channel subunit alpha-1H, sequence (O95180 whole entry): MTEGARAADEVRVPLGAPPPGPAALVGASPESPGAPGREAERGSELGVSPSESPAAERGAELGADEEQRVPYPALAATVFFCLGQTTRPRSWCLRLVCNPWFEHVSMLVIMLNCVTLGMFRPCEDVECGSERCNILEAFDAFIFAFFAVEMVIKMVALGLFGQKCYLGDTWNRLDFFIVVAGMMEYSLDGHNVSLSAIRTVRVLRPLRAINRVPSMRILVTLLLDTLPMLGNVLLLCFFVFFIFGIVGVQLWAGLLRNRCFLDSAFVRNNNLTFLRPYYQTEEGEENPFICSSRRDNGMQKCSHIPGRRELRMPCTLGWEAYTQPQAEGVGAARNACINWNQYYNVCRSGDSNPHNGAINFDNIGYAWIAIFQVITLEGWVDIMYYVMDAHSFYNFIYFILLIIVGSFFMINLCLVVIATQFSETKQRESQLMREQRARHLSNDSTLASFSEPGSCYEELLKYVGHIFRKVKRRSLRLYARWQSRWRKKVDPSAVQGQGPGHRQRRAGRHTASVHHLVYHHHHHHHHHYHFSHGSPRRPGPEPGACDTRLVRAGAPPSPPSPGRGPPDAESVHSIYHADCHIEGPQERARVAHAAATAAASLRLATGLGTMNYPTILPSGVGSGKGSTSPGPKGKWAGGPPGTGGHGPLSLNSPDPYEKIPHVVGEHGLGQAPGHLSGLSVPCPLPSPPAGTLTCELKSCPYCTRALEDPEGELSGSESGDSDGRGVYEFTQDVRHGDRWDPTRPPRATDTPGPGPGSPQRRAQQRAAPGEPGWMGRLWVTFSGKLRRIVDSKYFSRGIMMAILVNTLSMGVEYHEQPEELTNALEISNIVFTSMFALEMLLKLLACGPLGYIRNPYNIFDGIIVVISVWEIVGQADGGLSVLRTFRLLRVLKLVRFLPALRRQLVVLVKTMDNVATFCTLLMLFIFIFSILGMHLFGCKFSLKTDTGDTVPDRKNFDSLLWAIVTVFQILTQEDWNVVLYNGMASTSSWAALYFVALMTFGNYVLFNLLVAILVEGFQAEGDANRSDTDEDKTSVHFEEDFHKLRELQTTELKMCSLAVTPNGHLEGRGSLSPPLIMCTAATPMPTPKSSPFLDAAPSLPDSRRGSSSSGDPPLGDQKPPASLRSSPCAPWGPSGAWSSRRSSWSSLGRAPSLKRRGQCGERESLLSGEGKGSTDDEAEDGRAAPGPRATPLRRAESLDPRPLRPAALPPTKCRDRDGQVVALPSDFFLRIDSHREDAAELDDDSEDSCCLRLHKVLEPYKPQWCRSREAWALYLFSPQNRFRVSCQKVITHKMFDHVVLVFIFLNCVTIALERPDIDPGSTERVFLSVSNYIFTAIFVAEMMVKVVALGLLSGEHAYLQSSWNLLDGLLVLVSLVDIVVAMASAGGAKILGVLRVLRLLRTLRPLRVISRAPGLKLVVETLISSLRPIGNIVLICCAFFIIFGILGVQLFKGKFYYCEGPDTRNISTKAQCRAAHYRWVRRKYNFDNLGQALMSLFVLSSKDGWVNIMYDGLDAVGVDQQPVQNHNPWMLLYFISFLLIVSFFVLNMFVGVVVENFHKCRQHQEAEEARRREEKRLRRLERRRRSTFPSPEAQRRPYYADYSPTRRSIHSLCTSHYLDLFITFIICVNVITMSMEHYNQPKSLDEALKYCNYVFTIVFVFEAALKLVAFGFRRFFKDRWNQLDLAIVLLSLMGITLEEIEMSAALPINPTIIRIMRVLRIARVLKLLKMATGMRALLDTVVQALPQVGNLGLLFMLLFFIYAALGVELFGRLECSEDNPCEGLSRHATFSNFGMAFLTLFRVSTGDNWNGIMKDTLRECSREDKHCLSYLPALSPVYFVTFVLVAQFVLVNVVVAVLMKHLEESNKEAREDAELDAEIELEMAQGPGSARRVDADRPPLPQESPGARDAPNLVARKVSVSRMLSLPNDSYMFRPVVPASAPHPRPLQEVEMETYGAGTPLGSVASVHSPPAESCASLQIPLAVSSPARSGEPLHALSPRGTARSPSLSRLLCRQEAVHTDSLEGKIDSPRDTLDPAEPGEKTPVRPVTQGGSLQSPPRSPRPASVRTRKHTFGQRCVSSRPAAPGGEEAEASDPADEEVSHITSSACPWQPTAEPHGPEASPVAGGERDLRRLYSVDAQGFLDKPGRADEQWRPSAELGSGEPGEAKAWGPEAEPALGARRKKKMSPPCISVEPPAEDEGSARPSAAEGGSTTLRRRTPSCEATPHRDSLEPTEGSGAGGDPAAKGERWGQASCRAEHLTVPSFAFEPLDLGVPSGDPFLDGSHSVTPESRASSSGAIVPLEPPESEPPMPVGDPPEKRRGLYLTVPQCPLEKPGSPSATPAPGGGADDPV
# Leucine aminopeptidase = molecular target: T4, Leucine aminopeptidase (Plasmodium falciparum 3D7, UniProt Q8IL11); assay: P. falciparum M17LAP inhibitors, primary screen, biochemical, fluorogenic H-Leu-NHMec substrate, 1536-well (AID 1619); assay type: functional
# T4 sequence (Q8IL11 whole entry): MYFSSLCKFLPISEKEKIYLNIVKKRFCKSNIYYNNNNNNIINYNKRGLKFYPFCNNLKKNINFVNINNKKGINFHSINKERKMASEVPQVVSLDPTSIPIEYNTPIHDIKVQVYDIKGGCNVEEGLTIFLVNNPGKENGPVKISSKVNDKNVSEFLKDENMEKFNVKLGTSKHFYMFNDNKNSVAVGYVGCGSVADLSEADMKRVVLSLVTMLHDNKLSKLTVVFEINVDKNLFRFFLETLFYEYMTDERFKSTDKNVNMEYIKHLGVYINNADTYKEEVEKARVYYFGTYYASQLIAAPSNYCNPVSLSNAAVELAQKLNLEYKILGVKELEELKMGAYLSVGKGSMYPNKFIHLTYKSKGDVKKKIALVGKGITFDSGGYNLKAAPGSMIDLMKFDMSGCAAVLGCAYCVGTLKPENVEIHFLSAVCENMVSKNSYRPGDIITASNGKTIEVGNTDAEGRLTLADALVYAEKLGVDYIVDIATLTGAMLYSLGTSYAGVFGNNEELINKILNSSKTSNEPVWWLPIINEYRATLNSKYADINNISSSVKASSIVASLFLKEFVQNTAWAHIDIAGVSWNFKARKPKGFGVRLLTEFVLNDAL
# [7] = molecular target: Induced myeloid leukemia cell differentiation protein Mcl-1 (Homo sapiens, UniProt Q07820); assay type: functional
# Induced myeloid leukemia cell differentiation protein Mcl-1, sequence (Q07820 whole entry): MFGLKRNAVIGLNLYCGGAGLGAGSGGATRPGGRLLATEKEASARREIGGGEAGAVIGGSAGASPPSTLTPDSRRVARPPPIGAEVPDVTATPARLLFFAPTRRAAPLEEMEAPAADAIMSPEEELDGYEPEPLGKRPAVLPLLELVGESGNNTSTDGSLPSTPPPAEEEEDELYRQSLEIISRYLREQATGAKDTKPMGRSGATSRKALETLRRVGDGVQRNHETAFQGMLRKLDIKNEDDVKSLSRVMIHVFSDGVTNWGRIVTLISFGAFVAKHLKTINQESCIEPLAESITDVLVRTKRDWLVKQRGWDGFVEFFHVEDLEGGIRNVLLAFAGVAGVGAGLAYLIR
# [8] = THP-1 cell cytotoxicity, dose response, cytotoxicity control for non-replicating M. tuberculosis project (AID 489025); assay type: functional
# cells = assay type: functional
# [9] = microbe, parasite or virus in culture; assay type: functional; details: Mycobacterium tuberculosis
# [10] = HPDE-C7 pancreatic duct cell viability loss – fluorescence, HTS (AID 430); assay type: functional, cell-based; details: Homo sapiens
# [11] = HEK-293T viability loss after treatment – luminescence, T-cell screen hits, cytotoxicity control for TCR NF-kB inhibitor project, dose response (AID 489026); assay type: functional, cell-based;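 also: cells exposed to compound about 14 hours before the viability readout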
# [12] = viability loss of HPDE-C7K cells – cell-based, fluorescence, HTS, primary screen (AID 431); assay type: functional; details: Homo sapiens
# [13] = alpha-synuclein stem-loop luciferase translation blockers – H4 neuroglioma cells, luminescence, confirmation (AID 1988); assay type: functional, cell-based
# [14] = Luminescence Cell-Based Dose Response HTS to Identify Inhibitors of 5'UTR Stem-Loop Driven Prion Protein mRNA Translation in H4 Neuroglioblastoma Cells. [Related pubchem assays: 1827 (Project Summary), 1813 (Primary HTS)]; assay type: functional
# [15] = luciferase reporter signal suppression in cells – H4 neuroglioma cells, luminescence, dose response (AID 1990); assay type: functional, cell-based
# [16] = DRD fibroblast viability loss – cell-based, non-viral oncogenic, luminescence, dose response (AID 1934); assay type: functional; details: Homo sapiens
# BJ [17] = assay: cells; assay type: functional, cell-based; details: Homo sapiens
# BJ [18] = assay: BJ-TERT fibroblast viability loss – cell-based, RAS-independent, luminescence, dose response (AID 1933); assay type: functional; details: Homo sapiens
# BJ [19] = assay: BJ-TERT-LT-ST fibroblast viability loss – cell-based, RAS-independent, luminescence, dose response (AID 1935); assay type: functional; details: Homo sapiens;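 also: BJ fibroblasts immortalized with TERT plus LT and ST oncogenes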
# [20] = Luminescence Cell-Based Dose Confirmation HTS to Identify Inhibitors of Platelet Dense Granule Release. [Related pubchem assays: 1663 (Primary HTS), 1678 (Summary of Project)]; assay type: functional
# [21] = molecular target: Luciferin 4-monooxygenase (Photinus pyralis, UniProt P08659); assay: inhibition of purified Photinus pyralis luciferase – biochemical, luminescence, dose response (AID 1891)
# Luciferin 4-monooxygenase, sequence (P08659 whole entry): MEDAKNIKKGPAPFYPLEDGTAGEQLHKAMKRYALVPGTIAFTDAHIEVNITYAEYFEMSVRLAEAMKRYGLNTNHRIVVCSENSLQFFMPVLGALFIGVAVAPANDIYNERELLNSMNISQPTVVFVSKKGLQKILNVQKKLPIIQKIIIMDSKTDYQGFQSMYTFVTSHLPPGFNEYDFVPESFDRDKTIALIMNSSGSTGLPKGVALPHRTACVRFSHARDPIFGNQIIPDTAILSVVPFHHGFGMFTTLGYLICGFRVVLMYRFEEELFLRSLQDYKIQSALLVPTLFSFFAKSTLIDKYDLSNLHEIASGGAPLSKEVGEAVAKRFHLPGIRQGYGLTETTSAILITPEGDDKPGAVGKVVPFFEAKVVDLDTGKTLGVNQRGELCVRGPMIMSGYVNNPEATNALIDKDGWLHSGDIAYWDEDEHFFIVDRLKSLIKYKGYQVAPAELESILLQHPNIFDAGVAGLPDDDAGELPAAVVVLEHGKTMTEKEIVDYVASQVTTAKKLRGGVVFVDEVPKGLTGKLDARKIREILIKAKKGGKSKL
# [22] = molecular target: T5, Ubiquitin-conjugating enzyme E2 N (Homo sapiens, UniProt P61088); assay type: functional;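 also: Dose-response confirmation in a TR-FRET assay detecting UBC13-driven polyubiquitin chain formation, inhibition measured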
# T5 sequence (P61088 whole entry): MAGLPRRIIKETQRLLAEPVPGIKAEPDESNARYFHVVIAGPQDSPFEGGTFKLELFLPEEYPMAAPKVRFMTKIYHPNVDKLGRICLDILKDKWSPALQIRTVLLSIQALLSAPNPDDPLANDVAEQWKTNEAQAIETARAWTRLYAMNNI
# INS1 = assay: INS-1E survival protection against cytokine death – cell-based, luminescence, retest, dose response (AID 449756); assay type: functional; details: Rattus norvegicus;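 also: cell death triggered by IL-1 beta plus TNF-alpha plus IFN-gamma mixture; protective hits raise ATP signal compared with cytokine alone wells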
# DNA dC->dU-editing enzyme APOBEC-3G, sequence (Q9HC16 whole entry): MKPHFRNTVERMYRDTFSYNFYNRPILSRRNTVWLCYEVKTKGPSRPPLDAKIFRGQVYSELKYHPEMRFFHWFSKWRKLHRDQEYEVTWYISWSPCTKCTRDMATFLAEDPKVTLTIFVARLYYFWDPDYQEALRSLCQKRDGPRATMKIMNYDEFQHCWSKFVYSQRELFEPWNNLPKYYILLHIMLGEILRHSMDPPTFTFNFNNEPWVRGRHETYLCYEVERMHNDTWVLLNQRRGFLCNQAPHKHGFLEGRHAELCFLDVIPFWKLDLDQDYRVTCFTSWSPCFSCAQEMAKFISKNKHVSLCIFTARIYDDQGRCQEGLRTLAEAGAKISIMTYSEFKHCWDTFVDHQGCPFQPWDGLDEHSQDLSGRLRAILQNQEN
compound,measurement,setting,value
Nc1cc(N)nc(SCC(=O)Nc2ccc(Br)cc2Cl)n1,IC50,[1],6.06 µM (active)
same,IC50,[2],4.42 µM (active)
O=C(Nn1c(C2CCC2)nc2ccccc2c1=O)C1CCC1,IC50,Aminopeptidase N,48.2 µM (active)
O=C(C#Cc1ccccc1)c1cccc([N+](=O)[O-])c1,EC50,[3],> 260 µM (inconclusive)
same,AC50,[4],3.62 µM (active)
same,AC50,[5],0.75 µM (active)
Cc1cccc(C2=NCC(=O)N(CC(=O)NCc3ccco3)c3sc4c(c32)CCCC4)c1,EC50,[6],4.37 µM (active)
CCn1nc(C(=O)Nc2cccc3ccccc23)c(Cl)c1Cl,EC50,[6],10.5 µM (active)
Cc1ccc2[nH]c(C)c(/C=C3/C(=N)N4C(=NC3=O)SN=C4S(=O)(=O)C(C)C)c2c1,IC50,Leucine aminopeptidase,7.16 µM (active)
same,IC50,[7],11.8 µM (not active)
same,IC50,Aminopeptidase N,9.85 µM (active)
Cc1ccc(CC(=O)N2CCN(c3ccc([N+](=O)[O-])cc3)CC2)cc1,CC50,[8],> 40 µM (active)
CN1C(=O)/C(=C/c2cccc(Cl)c2)Sc2ccc(C(=O)N3CCCC3)cc21,IC50,cells,34.4 µM (active)
same,CC50,[9],25.5 µM (active)
same,CC50,[8],9.59 µM (active)
Cc1ccc(-n2nnnc2Sc2nc([N+](=O)[O-])nn2C)c(C)c1,AC50,[4],39.6 µM (active)
CC(c1nc2ccccc2o1)N1C(=O)c2ccccc2C1=O (stereo not given),IC50,Aminopeptidase N,79.5 µM (active)
COC(=O)c1[nH]c2ccc(Br)cc2c1NC(=O)CN1CCN(C2CCCCC2)CC1,EC50,[10],> 20 µM (not active)
same,IC50,[11],22.4 µM (inactive)
same,EC50,[12],> 20 µM (not active)
same,EC50,[13],7.79 µM (active)
same,EC50,[14],12.9 µM (active)
same,EC50,[15],12.2 µM (active)
O=C(Nc1ccccc1)Nc1ccc(C(=O)N2CCCC2)cc1,EC50,[16],7.86 µM (active)
same,EC50,BJ [17],9.01 µM (active)
same,EC50,BJ [18],9.11 µM (active)
same,EC50,BJ [19],> 150 µM (inconclusive)
same,EC50,[20],3.93 µM (active)
same,EC50,[21],0.571 µM (active)
COc1cccc(CNC(=O)C2CCN(Cc3cnn(-c4ccccc4)c3-n3cccc3)CC2)c1,EC50,[6],9.81 µM (active)
COC(=O)c1[nH]c2ccc(Cl)cc2c1NC(=O)CN1CCc2cc(OC)c(OC)cc2C1,IC50,[1],7.77 µM (active)
same,IC50,[2],3.18 µM (active)
same,EC50,[20],> 112 µM (not active)
same,EC50,[21],> 112 µM (not active)
O=C(CCl)Nc1ccccc1C(=O)NCc1ccccc1,EC50,[16],> 150 µM (inconclusive)
same,EC50,BJ [17],> 150 µM (not active)
same,EC50,BJ [18],> 150 µM (not active)
same,EC50,BJ [19],> 150 µM (not active)
COC(=O)C1=C(C)N(Cc2ccccc2)C(NCC(C)C)=N[C@H]1c1cccc(C(F)(F)F)c1,IC50,[22],> 20 µM (inactive)
same,IC50,[1],4.22 µM (active)
same,AC50,[4],15 µM (active)
same,IC50,[2],2.88 µM (active)
CCN(c1ccccc1)S(=O)(=O)c1ccc(C(=O)NC2CCN(Cc3ccccc3)CC2)cc1,IC50,[11],> 80 µM (inactive)
same,AC50,INS1,2.31 µM (active)
CC/N=c1\sc2ccccc2n1CC(O)COc1ccccc1 (stereo not given),EC50,[6],29.1 µM (active)
